# From patent US6136814A (priority 1997, dated 2000)
# Values joined by “and” are separate entries in the source; they are usually repeats but may differ in a detail not shown here. Equal values may be shown once.
# What was measured:
# [1] = compatibility with container and seal materials, pH on storage (Example 3); type: physicochemical; settings: polypropylene vials, RT and 40° C., three months
# Experimental: At various time intervals, the samples were tested for pH. The pH was measured using a calibrated standard pH meter.
# aqueous solubility = type: physicochemical; settings: water, determined experimentally
# [2] = pH stability of aqueous acyclovir sodium under accelerated CO2 permeation conditions (Example 2); type: physicochemical; settings: after 3 weeks
# Source text: The solution was transferred, under a nitrogen atmosphere, to autoclaved filling equipment contained within a laminar air-flow hood to avoid particle and microbiological contamination. […] The filtered bulk solution and containers were purged with nitrogen during the filling process to avoid CO2 absorption. The process was repeated for polyethylene terephthalate vials and Daikyo Resin CZ vials (sold by Daikyo Gomu Seiko, Ltd, reported in some references as polymethylpentene).
# The samples were tested under accelerated CO2 storage conditions. The samples were placed in three different chambers with elevated CO2 atmospheres, maintained at a concentration of approximately 2%, 5%, and 10% CO2 by volume, for 3 weeks. The pH was measured at various times using a calibrated standard pH meter.
# [3] = calculated pH over time, 10 mL vial, normal atmospheric storage (Example 7)
# Experimental: (§1) The atmospheric CO2 content, measured using a Dickson, Model CO2 X carbon dioxide recorder, was measured as 0.07% by volume and this value was used in the calculation.
# [4] = measured pH drop over 21 months under normal atmospheric conditions (Example 9); type: physicochemical
# Experimental: For each vial, one half was stored in the upright position and the other half was stored in the inverted position. The pH was measured over time using a standard calibrated pH meter.
# [5] = calculated pH over time, 20 mL vial, normal atmospheric storage (Example 8)
# Experimental: as §1
# [6] = pH at which precipitation or haziness is observed; type: physicochemical
# Source text: As indicated earlier, the pH of aqueous acyclovir sodium must be maintained above the pHp to avoid the formation of precipitates.
# [7] = effect of CO2 on pH of aqueous acyclovir solution under accelerated conditions (Example 6); type: physicochemical
# Experimental: The desiccators were evacuated and filled with the CO2 standards three consecutive times at the beginning of the experiment, and the filling process was repeated each week and each time the desiccators were opened for removing samples. The pressure in the desiccators was maintained at 1 atm. The pH was measured at various time intervals.
# [8] = effect of CO2 on pH of unbuffered aqueous sodium hydroxide in polypropylene vials (Example 1); type: physicochemical
# Source text: This example represents the effect of CO2 on the pH of an unbuffered aqueous sodium hydroxide solution. […] The solution was placed in a series of identical polypropylene vials which were sealed and separated into two groups (Groups A and B). The vials were identical in every relevant parameter, including average wall thickness, surface area, and stoppers. The sodium hydroxide solution in all samples were taken from the same lot and each vial was filled under identical filling conditions. Samples in group A were stored under normal atmospheric conditions. Samples in group B were placed in a 5.8 L desiccator along with a beaker containing 50 mL of 1N aq. HCl (0.05 moles HCl). After carefully adding 100 mL of 0.5M NaHCO3 (0.05 moles NaHCO3) to the HCl solution, the desiccator was immediately sealed to prevent escape of the resulting CO2 (approximately 0.05 moles CO2). The calculated concentration of CO2 in the chamber was approximately 18% by volume. The samples were allowed to stand for 3 weeks under the aforesaid conditions. The pH of the samples in the containers was measured using a calibrated standard pH meter.
# [9] = depending on the desired concentration; cited from earlier work
# [10] = cited from earlier work
smiles,measurement,setting,value
Nc1nc2c(ncn2COCCO)c(=O)[nH]1 [acyclovir sodium],precipitation upon visual inspection,[1],no precipitation was observed
same,impurities by HPLC,[1]; Teflon coated stoppers,no significant impurities were generated
same,solubility,aqueous solubility,644 mg/mL
same,precipitate,"[2]; 2%, 5% and 10% CO2",no precipitate was observed
same,pH decline,[2]; 5% CO2,0.33 pH units
same,pH decline,[2]; 10% CO2,0.48 pH units
same,shelf life,[3],greater than 24 months
same,precipitates,[4]; after 21 months,no precipitates were detected
same,acceptable for parenteral administration,"[4]; normal atmospheric conditions, upright or inverted",at least 21 months
same,shelf life,"[4]; real time, normal atmospheric conditions",at least 21 months
same,shelf life,[5],greater than 24 months
same,pH at which precipitation becomes apparent,"[6]; 54.9 mg/mL aqueous solution, actual observations",< 10.8
same,pH below which haziness is observed,[6]; about 55 mg/mL acyclovir sodium,< 10.8
same,initial pH in the absence of CO2,"[7]; 54.9 mg/mL, with purging headspace",11.3
same,Measured pH,"[7]; 2.00% CO2, 10 mL vials, 14 days",11.10
same,Measured pH,"[7]; 2.00% CO2, 10 mL vials, 16 days",11.08
same,Measured pH,"[7]; 2.00% CO2, 10 mL vials, 20 days",11.03
same,Measured pH,"[7]; 2.00% CO2, 10 mL vials, 23 days",11.03
same,Measured pH,"[7]; 2.00% CO2, 10 mL vials, 27 days",11.01
same,Measured pH,"[7]; 2.00% CO2, 20 mL vials, 14 days",11.12
same,Measured pH,"[7]; 2.00% CO2, 20 mL vials, 16 days",11.10
same,Measured pH,"[7]; 2.00% CO2, 20 mL vials, 20 days",11.07
same,Measured pH,"[7]; 2.00% CO2, 20 mL vials, 23 days",11.05
same,Measured pH,"[7]; 2.00% CO2, 20 mL vials, 27 days",11.02
same,Measured pH,"[7]; 10.1% CO2, 10 mL vials, 6 days",10.94
same,Measured pH,"[7]; 10.1% CO2, 10 mL vials, 9 days",10.87
same,Measured pH,"[7]; 10.1% CO2, 10 mL vials, 14 days",10.70
same,Measured pH,"[7]; 10.1% CO2, 20 mL vials, 6 days",10.97
same,Measured pH,"[7]; 10.1% CO2, 20 mL vials, 9 days",10.90
same,Measured pH,"[7]; 10.1% CO2, 20 mL vials, 14 days",10.74
[Na+].[OH-] [sodium hydroxide],pH,"[8]; Group A normal atmosphere, 1 week",11.22
same,pH,"[8]; Group A normal atmosphere, 3 weeks",11.21
same,pH,"[8]; Group A normal atmosphere, initial",11.31
same,pH,"[8]; Group B CO2 chamber (approx. 18% CO2 by vol.), 3 weeks",6.37
same,pH,"[8]; Group B CO2 chamber (approx. 18% CO2 by vol.), initial",11.31
"Nc1nc2c(ncn2COCCO)c(=O)[nH]1 [acyclovir, 2-amino-1,9-dihydro-9-[(2-hydroxy-ethoxy)methyl]-6H-purin-6-one]",pH required to maintain an aqueous solution,[9],10-11
same,"water solubility, neutral form","[10]; undissociated acyclovir, in words",virtually insoluble in water
same,"aqueous solubility, neutral form","[10]; water, ambient temperature, Pharm. Res., vol. 8, p. 1087 (1991)",6.2 mM and ~6.2 mM
